Values quoted from earlier work, collected in US20160106774A1, “LIQUID PHARMACEUTICAL COMPOSITION CONTAINING PIROXICAM AND HYALURONIC ACID FOR THE TREATMENT OF OSTEOARTHRITIS” (DONG-A ST CO., LTD, priority 2013, published 2016).

Test system: carrageenan-induced animal podedema model
Settings: coadministration of NSAID with sodium hyaluronate; piroxicam 4 mg/kg and sodium hyaluronate 4 mg/kg; foot pad

SMILES	anti-inflammatory effect of coadministration with sodium hyaluronate
O=C(O)Cc1ccccc1Nc1c(Cl)cccc1Cl [diclofenac]	additive or synergistic effects
CC(C)Cc1ccc(C(C)C(=O)O)cc1 (stereo not shown) [ibuprofen]	additive or synergistic effects
COc1ccc2c(c1)c(CC(=O)O)c(C)n2C(=O)c1ccc(Cl)cc1 [indomethacin]	additive or synergistic effects
CN1C(C(=O)Nc2ccccn2)=C(O)c2ccccc2S1(=O)=O [piroxicam]	weak
